Data: patent US9840503B2, “Heterocyclic compounds and uses thereof” (Incyte Corporation, priority 2015, dated 2017)

Tests used:
Assay type in all cases: biochemical
AXL = AXL (Homo sapiens (Human), UniProt P30530); test: TAM Enzymatic Assay (HTRF), AXL; settings: 13.8 nM AXL, 100 uM ATP, 60 min room temperature
Description: (§1) The assay buffer contained 50 mM HEPES, pH7.5, 10 mM MgCl2, 1 mM EGTA, 0.01% NP-40 and 2 mM DTT. 0.5 ul test compounds dissolved in DMSO were transferred from compound plates to white 384-well assay plates (Greiner […] plates). […] A 1 mM stock solution of peptide substrate Biotin-[…]-amide (Quality Controlled Biochemicals, MA) dissolved in DMSO was diluted to 1 uM in assay buffer containing 100 uM ATP (for AXL and c-MER assays) or 20 uM ATP (for TYRO3 assay). 10 ul enzyme solution (or assay buffer for the enzyme blank) was added to the appropriate wells in each plate, and then 10 ul/well substrate solution was added to initiate the reaction. The plate was protected from light and incubated at room temperature for 60 min. […] The plate was incubated for 1 h at room temperature, and HTRF (homogenous time resolved fluorescence) signal was measured on a PHERAstar FS plate reader (BMG labtech). Percentage of inhibition was calculated for each concentration and IC50 value was generated from curve fitting with GraphPad Prism software.

c-MER = c-MER (Homo sapiens (Human), UniProt Q12866); test: TAM Enzymatic Assay (HTRF), c-MER; settings: 4.1 nM c-MER, 100 uM ATP, 60 min room temperature
Description: as §1

TYRO3 = TYRO3 (Homo sapiens (Human), UniProt Q06418); test: TAM Enzymatic Assay (HTRF), TYRO3; settings: 0.366 nM TYRO3, 20 uM ATP, 60 min room temperature
Description: as §1

c-MER, sequence (Q12866 21-999): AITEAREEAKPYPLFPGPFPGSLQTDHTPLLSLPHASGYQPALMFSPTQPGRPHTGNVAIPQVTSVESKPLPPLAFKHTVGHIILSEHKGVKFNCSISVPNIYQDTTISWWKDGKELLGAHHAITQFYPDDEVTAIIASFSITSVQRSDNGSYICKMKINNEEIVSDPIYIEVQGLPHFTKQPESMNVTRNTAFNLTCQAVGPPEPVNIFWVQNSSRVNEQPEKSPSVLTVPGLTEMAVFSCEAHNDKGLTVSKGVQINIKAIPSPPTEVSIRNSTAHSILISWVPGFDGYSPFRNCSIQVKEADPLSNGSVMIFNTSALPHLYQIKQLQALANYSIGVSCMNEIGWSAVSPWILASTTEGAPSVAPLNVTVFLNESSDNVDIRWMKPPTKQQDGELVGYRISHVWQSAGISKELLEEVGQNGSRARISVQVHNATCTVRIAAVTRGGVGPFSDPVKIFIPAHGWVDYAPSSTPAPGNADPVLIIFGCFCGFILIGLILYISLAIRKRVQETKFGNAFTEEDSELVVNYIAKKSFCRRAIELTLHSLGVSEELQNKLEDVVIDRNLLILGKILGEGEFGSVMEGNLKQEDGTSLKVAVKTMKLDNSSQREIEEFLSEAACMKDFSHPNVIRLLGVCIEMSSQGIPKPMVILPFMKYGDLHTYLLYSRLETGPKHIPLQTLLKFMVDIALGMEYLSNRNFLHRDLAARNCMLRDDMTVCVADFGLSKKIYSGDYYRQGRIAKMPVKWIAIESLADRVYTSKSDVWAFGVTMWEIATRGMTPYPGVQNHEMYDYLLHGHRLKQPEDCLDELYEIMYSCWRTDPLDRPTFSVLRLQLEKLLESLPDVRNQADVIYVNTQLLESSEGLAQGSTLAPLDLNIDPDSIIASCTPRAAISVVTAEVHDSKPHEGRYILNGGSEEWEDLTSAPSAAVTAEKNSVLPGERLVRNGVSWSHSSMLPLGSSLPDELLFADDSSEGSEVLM
AXL, sequence (P30530 26-894): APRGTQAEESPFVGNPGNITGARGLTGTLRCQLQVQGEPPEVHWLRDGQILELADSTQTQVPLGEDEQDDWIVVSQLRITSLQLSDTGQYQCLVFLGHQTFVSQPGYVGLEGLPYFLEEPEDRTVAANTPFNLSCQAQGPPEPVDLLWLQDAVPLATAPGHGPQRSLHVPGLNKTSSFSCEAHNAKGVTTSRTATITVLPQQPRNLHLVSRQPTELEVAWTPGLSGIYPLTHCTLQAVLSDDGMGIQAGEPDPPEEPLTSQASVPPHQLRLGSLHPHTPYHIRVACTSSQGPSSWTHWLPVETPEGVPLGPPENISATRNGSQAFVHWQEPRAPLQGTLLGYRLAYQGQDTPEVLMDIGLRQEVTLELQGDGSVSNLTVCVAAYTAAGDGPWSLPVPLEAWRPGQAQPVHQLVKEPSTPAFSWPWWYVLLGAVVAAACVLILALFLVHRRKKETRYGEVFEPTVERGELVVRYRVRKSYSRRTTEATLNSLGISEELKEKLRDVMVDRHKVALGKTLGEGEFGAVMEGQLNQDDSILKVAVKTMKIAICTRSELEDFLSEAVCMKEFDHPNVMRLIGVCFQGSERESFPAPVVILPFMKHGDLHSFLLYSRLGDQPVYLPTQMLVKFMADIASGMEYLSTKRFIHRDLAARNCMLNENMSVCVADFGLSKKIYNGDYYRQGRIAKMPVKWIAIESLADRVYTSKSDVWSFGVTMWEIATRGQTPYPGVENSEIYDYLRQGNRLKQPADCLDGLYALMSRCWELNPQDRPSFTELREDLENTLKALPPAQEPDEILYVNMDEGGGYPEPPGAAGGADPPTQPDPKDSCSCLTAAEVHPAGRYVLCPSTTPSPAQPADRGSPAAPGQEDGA
TYRO3, sequence (Q06418 41-890): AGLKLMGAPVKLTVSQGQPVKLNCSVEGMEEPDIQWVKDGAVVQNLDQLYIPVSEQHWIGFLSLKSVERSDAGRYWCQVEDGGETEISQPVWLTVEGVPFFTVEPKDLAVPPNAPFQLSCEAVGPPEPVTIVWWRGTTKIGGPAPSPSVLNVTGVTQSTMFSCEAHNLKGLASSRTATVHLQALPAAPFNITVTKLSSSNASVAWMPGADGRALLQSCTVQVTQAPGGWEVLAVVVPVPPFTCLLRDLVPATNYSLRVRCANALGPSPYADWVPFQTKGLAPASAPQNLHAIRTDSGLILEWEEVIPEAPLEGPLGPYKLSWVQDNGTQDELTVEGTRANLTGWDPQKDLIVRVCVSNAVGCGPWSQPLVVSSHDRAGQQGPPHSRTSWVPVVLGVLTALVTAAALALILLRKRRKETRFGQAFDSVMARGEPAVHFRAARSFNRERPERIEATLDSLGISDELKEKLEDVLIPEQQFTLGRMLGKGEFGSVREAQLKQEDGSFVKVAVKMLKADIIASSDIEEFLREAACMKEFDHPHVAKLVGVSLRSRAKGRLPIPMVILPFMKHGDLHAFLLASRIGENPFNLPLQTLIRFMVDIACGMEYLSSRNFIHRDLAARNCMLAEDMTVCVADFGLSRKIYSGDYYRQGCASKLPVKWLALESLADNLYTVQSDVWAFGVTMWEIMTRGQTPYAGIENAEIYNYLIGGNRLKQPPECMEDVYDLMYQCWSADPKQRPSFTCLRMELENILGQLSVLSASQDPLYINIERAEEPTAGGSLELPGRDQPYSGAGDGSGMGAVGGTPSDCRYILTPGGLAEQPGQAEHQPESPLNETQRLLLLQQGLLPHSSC

SMILES	IC50 (AXL)	IC50 (c-MER)	IC50 (TYRO3)
CCCCNc1ncc2c(n1)N([C@H]1CC[C@H](O)CC1)Cc1cc(CN3CCOCC3)ccc1-2 [Example 1, trans-4-[3-(Butylamino)-8-(morpholin-4-ylmethyl)pyrimido[4,5-c]isoquinolin-5(6H)-yl]cyclohexanol]	> 1 µM		
CCCCNc1ncc2c3ccc(CNC4CCCCC4)cc3c(=O)n([C@H]3CC[C@H](O)CC3)c2n1 [Example 2, 3-(Butylamino)-8-[(cyclohexylamino)methyl]-5-(trans-4-hydroxycyclohexyl)pyrimido[4,5-c]isoquinolin-6(5H)-one]		< 0.1 µM	< 0.1 µM
CCCCNc1ncc2c(n1)N([C@H]1CC[C@H](O)CC1)Cc1cc(CNC3CCCCC3)ccc1-2 [Example 3, trans-4-[3-(Butylamino)-8-[(cyclohexylamino)methyl]pyrimido[4,5-c]isoquinolin-5(6H)-yl]cyclohexanol]	< 0.1 µM	< 0.1 µM	< 0.1 µM
CCCCNc1ncc2c3ccc(CNC4CCOCC4)cc3c(=O)n([C@H]3CC[C@H](O)CC3)c2n1 [Example 4, 3-(Butylamino)-5-(trans-4-hydroxycyclohexyl)-8-[(tetrahydro-2H-pyran-4-ylamino)methyl]pyrimido[4,5-c]isoquinolin-6(5H)-one]	> 1 µM	< 0.1 µM	0.1 to 1 µM
CCCCNc1ncc2c3ccc(CNCCO)cc3c(=O)n([C@H]3CC[C@H](O)CC3)c2n1 [Example 5, 3-(Butylamino)-5-(trans-4-hydroxycyclohexyl)-8-{[(2-hydroxyethyl)amino]methyl}pyrimido [4,5-c]isoquinolin-6(5H)-one]	> 1 µM		
CCCCNc1ncc2c3ccc(CNC4CCCCC4)cc3c(=O)n([C@H]3CC[C@H](N)CC3)c2n1 [Example 6, 5-(trans-4-aminocyclohexyl)-3-(butylamino)-8-((cyclohexylamino)methyl)pyrimido[4,5-c]isoquinolin-6(5H)-one]		< 0.1 µM	< 0.1 µM
CCCCNc1ncc2c3ccc(-c4cnn(C)c4)cc3c(=O)n([C@H]3CC[C@H](O)CC3)c2n1 [Example 7, 3-(Butylamino)-5-(trans-4-hydroxycyclohexyl)-8-(1-methyl-1H-pyrazol-4-yl)pyrimido[4,5-c]isoquinolin-6(5H)-one]	> 1 µM		
CCCCNc1ncc2c3ccc(-c4c(F)cccc4F)cc3c(=O)n([C@H]3CC[C@H](O)CC3)c2n1 [Example 8, 3-(Butylamino)-8-(2,6-difluorophenyl)-5-(trans-4-hydroxycyclohexyl)pyrimido[4,5-c]isoquinolin-6(5H)-one]	> 1 µM	> 1 µM	> 1 µM
CCCCNc1ncc2c(n1)N([C@H]1CC[C@H](N)CC1)Cc1cc(CNC3CCCCC3)ccc1-2 [Example 9, 5-(trans-4-Aminocyclohexyl)-N-butyl-8-[(cyclohexylamino)methyl]-5,6-dihydropyrimido [4,5-c]isoquinolin-3-amine]	< 0.1 µM	< 0.1 µM	< 0.1 µM
CCCCNc1ncc2c(n1)N([C@H]1CC[C@H](N)CC1)Cc1cc(CNC3CCOCC3)ccc1-2 [Example 10, 5-(trans-4-Aminocyclohexyl)-N-butyl-8-{[(tetrahydropyran-4-yl)amino]methyl}-5,6-dihydropyrimido[4,5-c]isoquinolin-3-amine]		< 0.1 µM	< 0.1 µM
CCCCNc1ncc2c(n1)N([C@H]1CC[C@H](N)CC1)Cc1cc(CNC3CCCC3)ccc1-2 [Example 11, 5-(trans-4-aminocyclohexyl)-N-butyl-8-((cyclopentylamino)methyl)-5,6-dihydropyrimido[4,5-c]isoquinolin-3-amine]		< 0.1 µM	< 0.1 µM
